Source: PubChem BioAssay (NCI)
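Method: 48-hour compound exposure of cells in 96-well plates, five concentrations, linear interpolation of endpoints. Definition used: TGI = concentration required for complete inhibition of growth.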

Assays:
Assay in all cases: NCI-60 cell line screen, 48 h
[1] = system: SK-MEL-2 melanoma
[2] = system: K-562 leukemia
[3] = system: NCI/ADR-RES ovarian
[4] = system: SF-295 CNS
[5] = system: HCT-116 colon
[6] = system: SR leukemia
[7] = system: SN12C renal
[8] = system: SK-MEL-28 melanoma
[9] = system: RPMI-8226 leukemia
[10] = system: MOLT-4 leukemia

Row | Structure (SMILES) | TGI [1] [µM] | TGI [2] [µM] | TGI [3] [µM] | TGI [4] [µM] | TGI [5] [µM] | TGI [6] [µM] | TGI [7] [µM] | TGI [8] [µM] | TGI [9] [µM] | TGI [10] [µM]
1 | CN(NC(=O)c1ccco1)C1=NCCCCN1 | > 100 | > 100 | > 100 | > 100 | > 100 | > 100 | > 100 | > 100 | > 100 | > 100
2 | N#Cc1c(-c2ccco2)c2c(n(C3OC(CO)C(O)C(O)C3O)c1=S)CCCC2 (configuration not stated) | > 100 | – | > 100 | > 100 | > 100 | > 100 | > 100 | > 100 | – | > 100
3 | COc1ccc(-c2nc3ncccn3c2-c2ccc(S(C)=O)cc2)cc1 (configuration not stated) | > 100 | > 100 | > 100 | > 100 | > 100 | > 100 | > 100 | > 100 | > 100 | > 100
4 | CCOC(=O)c1cc2cc(Cc3ccc4[nH]c(C(=O)OCC)cc4c3)ccc2[nH]1 | 81.1 | > 100 | 52.6 | 55.5 | > 100 | > 100 | > 100 | > 100 | > 100 | > 100
5 | COc1ccc(C2SCC(=O)N2N=C2NC(=O)CC(=O)N2)cc1 (configuration not stated) | > 100 | > 100 | > 100 | > 100 | > 100 | > 100 | > 100 | > 100 | > 100 | > 100
6 | CCC1(O)C=CC(=O)C=C1 | > 100 | > 100 | > 66.8 | > 100 | > 100 | > 100 | > 100 | 57.6 | > 100 | > 100
7 | CC1C(c2ccc(N(C)C)cc2)c2cc3c(cc2OC1N1CCCC1)OCO3 (configuration not stated) | > 82.6 | 97.3 | > 94.1 | > 94.8 | > 100 | > 100 | > 100 | > 100 | 97.5 | > 100
8 | O=c1cnn(C2OC(CO)C(O)C(F)C2O)c(=O)[nH]1 (configuration not stated) | > 100 | > 100 | > 100 | > 100 | > 100 | > 100 | > 100 | > 100 | > 100 | –
9 | N/C(CC/C(N)=N\O)=N\O | > 100 | > 100 | > 100 | > 100 | > 100 | > 100 | > 100 | > 100 | – | > 100
10 | COC(=O)OC[C@H]1O[C@@H](n2cc(C)c(=O)[nH]c2=O)CC1OC(=O)OC (some centres not stated) | > 100 | > 100 | > 100 | > 100 | – | > 100 | > 100 | > 100 | > 100 | > 100
11 | Nc1c(Br)cc(-c2cc(Br)c(N)c(Br)c2)cc1Br | – | > 100 | > 100 | > 100 | > 100 | > 100 | > 100 | > 100 | > 100 | > 100
12 | CC(=O)N[C@@H](Cc1ccc(O)cn1)C(=O)NCc1cccc(F)c1 | > 100 | > 100 | > 100 | > 100 | > 100 | > 100 | > 100 | > 100 | > 100 | –
13 | O=C(C=P(c1ccccc1)(c1ccccc1)c1ccccc1)C12CC3CC(CC(C3)C1)C2 | 29.5 | 25.2 | 37.6 | – | 29.4 | > 100 | 32.3 | 31.8 | 20.6 | –
14 | COc1c2cc(C(C)(C)C)cc1CSCc1cc(C(C)(C)C)cc(c1OC)CCCCC2 | > 50 | > 50 | > 50 | > 50 | > 50 | > 50 | > 50 | > 50 | – | > 50
15 | C/C(=N\Nc1nc2cc(C)ccc2s1)c1ccccn1 | 1.35 | – | 0.844 | > 40.9 | – | > 21.8 | 8.85 | 12.1 | 3.52 | –
16 | CN(C)CC1CCC/C(=C\c2ccc(N(C)C)cc2)C1=O (configuration not stated) | 22.3 | > 100 | 65.3 | 32.2 | 10.1 | – | 29.6 | 19.1 | > 100 | > 100
17 | CC(C)(C)C1CCC2c3c([nH]c4ccccc34)C3C(=O)N(c4cc(Br)cc(Br)c4)C(=O)C3C2C1 (configuration not stated) | 47.5 | – | 40.8 | – | 23.1 | 82.4 | 29.1 | 25.9 | > 100 | 38.2
18 | COc1c(C2(c3ccc(F)cc3)SCCCS2)c(=O)c1=O | > 100 | > 100 | > 100 | > 100 | > 100 | – | > 100 | > 100 | > 100 | > 100
19 | Fc1cccc(F)c1C1SCC2=Nc3ccccc3CN21 (configuration not stated) | – | > 100 | 79.5 | > 100 | > 100 | > 100 | > 100 | > 100 | > 100 | > 100
